Values of other authors, collected in patent US7776366B2, “Method and nutraceutical composition for mammals” (MD's Choice, Inc., priority 2002, dated 2010).

Conditions: within 30 minutes, in at least 3 species, via glucose transporter

efficiency of active absorption from the digestive tract: over 90%
Compound: N[C@H]1C(O)O[C@H](CO)[C@@H](O)[C@@H]1O.O=S(=O)(O)O (stereo partly shown) [Glucosamine sulphate]
